Non-standard residues stand in square brackets, D forms with d. Residues, ends and D or L forms follow the SMILES beside them. *: point of attachment. X1 = O=C(CCCC[C@@H]1SC[C@@H]2NC(=O)N[C@@H]21)NCCCOCCOCCOCCCN*; PEG12 = NCCOCCOCCOCCOCCOCCOCCOCCOCCOCCOCCOCCOCCC(=O)O
Experiments:
H1299 cells = test: Cell internalization by flow cytometry, absolute uptake (molecules per cell) of peptide-streptavidin-Alexa Fluor 647; type: cell-based, human; details: for Molecules Internalized Per Cell: Average
From the text: Optimizing MGS4 as a monomer is efficient but the optimal valency of the truncated peptide may be different than that of the full-length peptide. The peptide was synthesized as a monomer (MGS4_V8), dimer (MGS4_V9), and tetramer (MGS4_V10). To obtain quantitative data, we moved from measuring the relative fluorescence of dye-labeled peptide to the determination of the average number of dye molecules internalized per cell. […] The dimer MGS4_V9 has an EC50 7-fold lower indicating there is a synergistic effect in going from a monomer to a dimer (Fig. 2a and Table 2). However, there is only a 2-fold decrease in going from a dimer to a tetrameric peptide (MGS4_V10). We also calculated the EC50 on three other NSCLC cell lines (Table 2 and Supplementary Figure 3). […] The average number of peptides internalized per cell at saturating conditions varies, with H1993 cells internalizing the highest number of peptides at all three valencies (Table 2). This is likely due to differing levels of receptor expression on the cell type. The average molecules internalized at 50 nM in one hour follows the same trend (Fig. 2b).
Non-internalized peptide was removed, and the mean number of peptides internalized per cell was determined to calculate the EC50. Individual measurements are shown. The mean is shown as an “X”. Error bars, in black, represent standard error measurements and are below the height of the symbols in some cases. b The average number of peptide molecules per cell at 50 nM at 1 h was determined on four NSCLC cell lines and one normal human bronchial epithelial cell line (HBEC). Error bars represent SEM and individual data points are shown. c H1299 cells were incubated with 50 nM peptide-Streptavidin-Qdot605 for 1 h, removed, and replaced with normal growth media. After 24 h, cells were fixed, and counterstained with DAPI (blue). Representative maximally projected z-stacks for each group reveal no apparent difference in peptide internalization or localization. The scale bar represents 10 µm.
Biotinylated peptide was conjugated to streptavidin-R-phycoerythrin or streptavidin-Alexa Fluor 647 (1:1 molar ratio) for 30 min. The open binding sites on streptavidin were quenched with RPMI 1640 and diluted to the indicated concentration. Tumor cells were grown to 90% confluency in a 12 well plate, then incubated with 500 µl peptide-dye conjugate at 37 °C. After 1 h, peptide was removed, and the cells were washed 3x with PBS (137 mM NaCl, 2.7 mM KCl, 10 mM Na2HPO4, 1.8 mM KH2PO4, pH 7.4), 2x with 0.1 M HCl-glycine pH2.2 in 0.9% NaCl, and 1x PBS rinse. Cells were removed by trypsinization. Flow cytometry was performed on a BD FACSCelesta, and data were analyzed on Flowing software. Cells were gated based on the forward and side scatter to include only viable cells and a minimum of 10,000 events were counted. A region containing <5% of the cells in the negative control was established, and relative peptide uptake by the mean fluorescence intensity of that population. For absolute peptide uptake per cell, a standard curve was generated using Quantum™ Alexa Fluor 647 microspheres (Bangs Laboratory, Fishers, IN). A representative linear regression showing the correlation of molecule equivalents soluble fluorophores (MESF) vs the mean fluorescence intensity (MFI) is shown in Supplemental Figure 6. Cells were gated based on the forward and side scatter to include only viable cells and a minimum of 10,000 events were counted. MFI was determined at 50% at peak height. Molecules internalized per cell were determined by the standard curve relating MESF to MFI and divided by the number dye molecules/MGS conjugate. An example is shown in supplemental Figure 7. GraphPad Prism® was used for non-linear regression curve fitting to calculate an EC50. Parameters and statistical analysis are provided (Supplementary Tables 2–6). Experiments were repeated a minimum of three times. […]

HBEC cells = test: In vitro saporin delivery, cell viability (CellTiter-GLO); type: cell-based, human; details: saporin conjugate, 6 h exposure, viability at 72 h
Method: The ability of MGS4_V8-saporin conjugate to induce cell death was determined.
Biotinylated peptide was conjugated to streptavidin-saporin (Advanced Targeting Systems Bio, San Diego, CA) in a 1:1 molar ratio. Increasing doses of peptide-drug conjugate in triplicate were incubated on the cells for 6 h at 37 °C. The drug was removed and replaced with complete growth media. After 72 h, cell viability was measured using CellTiter-GLO® (Promega, Madison, WI). Cell viability was normalized to untreated cells. IC50s were calculated using GraphPad Prism® using log(agonist) vs. response–Variable slope (four parameters). […]
M GS4_V4 (non-acetylated, panel a) and M GS4_V8 (acetylated, panel b ) were incubated in 100% human serum for 0 and 48-hours. Serum proteins were precipitated, and the peptide was analyzed by analytical
HPLC. The mass of the peptide and degradation products were determined by MALDI MS and are […]
MGS4_V8, MGS4_V9, or MGS4_V10 were conjugated with streptavidin-Alexa Fluor 650 and were incubated with the indicated cell line for 1 hour. Non-internalized peptide was rem ov ed, and the mean number of peptides internalized per cell was determined to calculate the EC50. […]
Supplemental Figure 4 : Peptide-Streptavidin conjugates are nontoxic to cells. a. […] After 72 hours, viability was measured. […]

## CC(=O)N[C@@H](Cc1ccccc1)C(=O)N[C@@H](Cc1c[nH]cn1)C(=O)N[C@@H](C)C(=O)N[C@H](C(=O)N1CCC[C@H]1C(=O)N[C@@H](CCC(N)=O)C(=O)N[C@@H](CO)C(=O)N[C@@H](Cc1ccccc1)C(=O)N[C@@H](Cc1ccc(O)cc1)C(=O)N[C@H](C(=O)NCCOCCOCCOCCOCCOCCOCCOCCOCCOCCOCCOCCOCCC(=O)N[C@@H](CCC(=O)NCCCOCCOCCOCCCNC(=O)CCCC[C@@H]1SC[C@@H]2NC(=O)N[C@@H]21)C(N)=O)[C@@H](C)O)C(C)C [MGS4_V8] (Ac-FHAVPQSFYT[PEG12]E(X1)-NH2)
H1299 cells; 0.01 nM
  Molecules Internalized Per Cell: 0
H1299 cells; 1 nM
  Molecules Internalized Per Cell: 88
H1299 cells; 10 nM
  Molecules Internalized Per Cell: 3648
H1299 cells; 20 nM
  Molecules Internalized Per Cell: 3316
H1299 cells; 30 nM
  Molecules Internalized Per Cell: 10700
H1299 cells; 40 nM
  Molecules Internalized Per Cell: 21020
H1299 cells; 50 nM
  Molecules Internalized Per Cell: 36807
H1299 cells; H1299 Cells, peptides internalized per cell at saturation
  Saturation (molecules): 40,400 ± 5100 molecules
H1299 cells; Supplementary Table 3
  HillSlope: 5.657
  LogIC50: -7.417
H1299 cells; Supplementary Table 3, molecules per cell
  Top: 40400
HBEC cells
  IC50: do not reach 50% cell viability
